Results taken from PMC3810934 (Emerging Infectious Diseases, 2013).
Like-named read-outs stand apart in the source and are kept apart here.

Columns and labels:
A/Shanghai/1/2013 virus = conditions: cited from earlier work
[1] = target: A/Anhui/1/2013 (E2/S1) virus isolate neuraminidase (Influenza A virus (A/Anhui/1/2013(H7N9)), UniProt A0A024E3Q2); format: biochemical; conditions: pH 5.1
[2] = target: A/Anhui/1/2013 (E2/S1) virus isolate neuraminidase (Influenza A virus (A/Anhui/1/2013(H7N9)), UniProt A0A024E3Q2); format: biochemical; conditions: pH 6.5
[3] = target: T1, Oseltamivir-sensitive A/Washington/01/2007 neuraminidase (Influenza A virus (H3N2), UniProt A7UPN3); experiment: biochemical
[4] = target: T1, Oseltamivir-sensitive A/Washington/01/2007 neuraminidase; format: biochemical; conditions: pH 6.5
[5] = target: T2, Oseltamivir-sensitive A/California/12/2012 neuraminidase (Influenza A virus (H1N1pdm09), UniProt R4SI91); format: biochemical; conditions: pH 5.1
[6] = target: T2, Oseltamivir-sensitive A/California/12/2012 neuraminidase; format: biochemical; conditions: pH 6.5

SMILES | Susceptibility on the basis of NI assay data (A/Shanghai/1/2013 virus) | IC50 [1] | IC50 [2] | IC50 [3] | IC50 ([1]; read-out: IC50) | IC50 [4] | IC50 ([2]; read-out: IC50) | IC50 [5] | IC50 ([3]; pH 5.1, read-out: IC50) | IC50 [6]
CC(=O)N[C@H]1[C@H]([C@H](O)[C@H](O)CO)OC(C(=O)O)=C[C@@H]1N=C(N)N [Zanamivir, zanamivir] | susceptible | 1 nM | 0.33 nM | 0.45 nM | – | – | – | – | – | –
CCC(CC)[C@H](NC(C)=O)[C@@H]1[C@H](O)[C@@H](C(=O)O)C[C@H]1N=C(N)N [Peramivir, peramivir] | – | – | – | – | 0.12 nM | 0.08 nM | 0.06 nM | 0.07 nM | 0.1 nM | 0.06 nM
CO[C@@H]([C@@H]1OC(C(=O)O)=C[C@H](NC(=N)N)[C@H]1NC(C)=O)[C@H](O)CO [Laninamivir, laninamivir] | – | 1.29 nM | 0.46 nM | – | – | – | – | – | – | –
